Measured values: patent publication US8871919B2, “RNAi therapeutic for treatment of Hepatitis C infection” (Florida State University Research Foundation, priority 2007, dated 2014)
“Also recorded” adds a separate entry of the source.

What was measured:
[1] = tested on: HCV; conditions: cited from earlier work
[2] = tested on: GS5 replicon cells; assay: NS5A expression in GS5 replicon cells (Western blot); format: cell-based, Hepatitis C virus; conditions: for NS5A expression: GS5 cells
[3] = tested on: RS2 replicon cells; assay: NS5A expression in CsA-resistant RS2 replicon cells (Western blot); format: cell-based, Hepatitis C virus; conditions: lentiviral shRNA, 7 days
[4] = tested on: CyPA; assay: CyPA expression in GS5 cells (Western blot); format: cell-based, human
Experimental: (§1) A human immunodeficiency virus (HIV)-based lentiviral vector is used to express all of the short hairpin RNAs (shRNAs). […] Target or sense sequences for the other shRNAs are as follows:
(§2) The above sequences may be converted to RNA sequences by changing each thymine (T) to uracil (U). Lentiviral vector production and transduction are performed as described previously (44). Stable cells expressing shRNAs are obtained by selection with 1 μg/ml of puromycin (MP Biomedicals, Solon, Ohio) for 3 weeks.

[5] = tested on: CyPA; assay: CyPA expression in RS2 cells (Western blot); format: cell-based, human; conditions: RS2 cells stably expressing shRNA (FIG. 3B)
Experimental: as §1, §2

[6] = tested on: GS5 replicon cells; assay: Colony formation assay, puromycin and G418 double selection, GS5 cells; format: cell-based, Hepatitis C virus
[7] = tested on: RS2 replicon cells; assay: Colony formation assay, puromycin and G418 double selection, RS2 cells; format: cell-based, Hepatitis C virus
[8] = tested on: RS2 replicon cells; assay: NS5A-GFP expression in RS2 cells by FACS; format: cell-based, Hepatitis C virus
Excerpt: In contrast to the GS5 replicon, RS2 replicates efficiently in the presence of substantial CyPA knock-down (FIG. 1D).

[9] = tested on: GT 1a (H77) subgenomic replicon; assay: Colony formation in stable Huh-7.5 cells electroporated with GT 1a (H77) replicon RNA; format: cell-based, Hepatitis C virus; conditions: stable Huh-7.5 cells (FIG. 4C)
Excerpt: (§3) FIG. 4C is an image of plates containing stained Huh-7.5 cells transduced with several shRNAs (sh-Luc, sh-A159, sh-B710, or sh-C454) after four weeks following electroporation with one microgram of either H77 (GT 1a) or Con1 (GT 1b) replicons;
(§4) GS5 and RS2 cells contain GT 1b replicons with the GFP gene inserted into the NS5A region. (See, e.g., Moradpour, D. et al., “Insertion of green fluorescent protein into nonstructural protein 5A allows direct visualization of functional hepatitis C virus replication complexes,” J. Virol. 78:7400-7409 (2004); Nelson, H. B. et al., “Effect of cell growth on hepatitis C virus (HCV) replication and a mechanism of cell confluence-based inhibition of HCV RNA and protein expression,” J. Virol. 80:1181-1190 (2006)). Next the effect of CyPA knock-down on replicons without GFP is examined. Both GT 1a and 1b replicons are tested. To this end, stable Huh-7.5 cell lines are established that express the various shRNAs and then challenges them, by electroporation, with in vitro-transcribed GT 1a (H77) and 1b (Con1) subgenomic replicon RNAs. The shRNAs effectively silence the expression of their respective targets in the stable cells as expected (FIGS. 4A and 4B). No defect in morphology or growth rate is detected for any of the stable cell lines, confirming that these CyPs are dispensable for cell survival in vitro.

[10] = tested on: GT 1b (Con1) subgenomic replicon; assay: Colony formation in stable Huh-7.5 cells electroporated with GT 1b (Con1) replicon RNA; format: cell-based, Hepatitis C virus; conditions: stable Huh-7.5 cells (FIG. 4C)
Excerpt: as §3, §4

[11] = tested on: H77 (GT 1a) replicon cells; assay: NS5A expression in H77 (GT 1a) replicon cells, transient transduction; format: cell-based, Hepatitis C virus; conditions: transient transduction (FIG. 4D)
Excerpt: (§5) FIG. 4D is an image of Western blots showing expression of the proteins NS5A, CyPB, and CyPA in H77 (GT 1a) and Con1 (GT 1b) replicon cells transduced with the indicated shRNAs (sh-Luc or sh-A161);

[12] = tested on: Con1 (GT 1b) replicon cells; assay: NS5A expression in Con1 (GT 1b) replicon cells, transient transduction; format: cell-based, Hepatitis C virus; conditions: transient transduction (FIG. 4D)
Excerpt: as §5

[13] = tested on: HCVcc/JFH-1; assay: HCVcc/JFH-1 infection of Huh-7.5 cells; format: cell-based, Hepatitis C virus
Excerpt: FIG. 5A is an image of an RNA gel showing HCV IRES RNA levels relative to cellular RNA helicase A (RHA) RNA in total RNA extracts from Huh7.5 cells transduced with several shRNAs (sh-Luc, sh-A159, or sh-B710) following infection with HCVcc/JFH-1 for nine days;
FIG. 5B is a fluorescence microscopy image showing anticore antibody and DAPI (4′,6′-diamidino-2-phenylindole) staining of paraformaldehyde fixed Huh7.5 cells transduced with either sh-Luc or sh-A159 following infection with HCVcc/JFH-1 for nine days;
FIG. 5C is an image of Western blots showing expression of the proteins NS3, GAPDH, and CyPA in total protein extracts from Huh7.5 cells transduced with the indicated shRNAs (sh-Luc or sh-A159) at 0, 9, or 12 days after infection with HCVcc/JFH-1 replicons; […]
Full-length JFH-1 cDNA is provided by Takaji Wakita. Production of infectious HCVcc and infection of Huh-7.5 cells are performed as described previously (See, e.g., Zhong, J. et al., “Robust hepatitis C virus infection in vitro,” Proc. Natl. Acad. Sci. USA, 102:9294-9299 (2005)). Western blotting and immunostaining of infected cells are carried out according to standard methods.

[14] = tested on: vesicular stomatitis virus; format: cell-based; conditions: sh-A159 Huh-7.5 cells (FIG. 5D)
[15] = tested on: Rep1b RNA; conditions: day 4 vs 7 hours after electroporation (FIG. 2E)
Experimental: A parallel electroporation of Rep1b RNA into Huh-7.5/sh-Luc cells serves as a positive control, which is set at 100%;
One microgram of replicon RNA is mixed with 9 μg of a pcDNA3.1-based plasmid containing no insert, CyPA cDNA, CyPB cDNA, or CyPC cDNA and used in a standard electroporation (36). RNA is extracted 7 h and 4 days post-electroporation and subjected to quantitative RT-PCR analysis to detect HCV RNA as described previously (See, e.g., Robida, J. M et al., Characterization of hepatitis C virus subgenomic replicon resistance to cyclosporine in vitro, J. Virol., 81:5829-5840 (2007). All the CyP cDNAs are tagged with a Myc epitope at the C terminus, and the CyPA cDNA containing silent mutations in the sh-A159 recognition site is designated CyPA#.

[16] = synthesized siRNA duplex, transient transfection (FIG. 2C)

## alpha-interferon and ribavirin
[1]
  sustained efficacy, share of patients: 40%

## sh-C454: shRNA directed at CyPC, nucleotides 454-474 of human CyPC cDNA (SEQ ID NO: 10) (AAGACTGAAGGTGTGCTGGTA) [reference compound]
[2]; lentiviral shRNA, 7 days
  NS5A expression: no effect
[3]
  NS5A expression: no effect

## sh-A159: shRNA against CyPA; sense sequence nucleotides 159 through 179 of human CyPA cDNA, hairpin UUCAAGAGA (SEQ ID NO: 3) (AAGGGUUCCUGCUUUCACAGAUUCAAGAGAUCUGUGAAAGCAGGAACCCUU)
[2]; lentiviral shRNA, 7 days
  NS5A expression: inhibits NS5A expression; also recorded: most effective
[2]; replicon cells, sh-A159 together with Myc-A# (FIG. 2D)
  NS5A expression with sh-A159-insensitive CyPA cDNA (Myc-A#): partially rescued
[4]; lentiviral shRNA, 7 days (FIG. 2B)
  CyPA expression: knock down CyPA expression; also recorded: most effective
[5]
  CyPA expression: substantial suppression
[6]
  number of double-resistant colonies: significantly lower number
[7]
  number of double-resistant colonies: not observed
[8]; no selection, 0.5 μg/ml CsA, FACS (FIG. 3C)
  suppression of NS5A-GFP expressing RS2 cells: no significant suppression
[8]; stable RS2 cells, CsA 4 days, FACS (FIG. 3A)
  sensitivity of RS2 replicon to CsA relative to RS2/sh-Luc: six to eight times more sensitive
[9]
  ability of replicon RNA to form colonies: completely inhibits
[10]
  ability of replicon RNA to form colonies: completely inhibits
[11]
  NS5A expression: inhibitory effect
[12]
  NS5A expression: inhibitory effect
[13]; Huh-7.5, HCVcc/JFH-1, RT-PCR, core staining, NS3 Western blot
  HCV infection of stable shRNA cells: highly refractory to infection
[13]; Huh-7.5 infected with JFH-1 for 10 days, then transduced, NS3 measured 7 days after transduction
  viral replication (NS3 expression) in an existing infection: suppresses viral replication
[14]
  susceptibility to infection by vesicular stomatitis virus: fully susceptible
[15]
  HCV RNA replication with sh-A159-insensitive CyPA cDNA (Myc-A#): partially rescued

## si-A159: synthesized siRNA duplex form of sh-A159 (sense SEQ ID NO: 2, antisense SEQ ID NO: 4) (sense AAGGGUUCCUGCUUUCACAGA; antisense UCUGUGAAAGCAGGAACCCUU; listed as RNA, chemistry not given here)
[2]; [16]
  NS5A expression: inhibited
[4]; [16]
  CyPA expression: inhibited; also recorded: no more potent than si-A285
